Values joined by “and” are separate entries in the source; they are usually repeats but may differ in a detail not shown here. Equal values may be shown once. Marks after values point to notes of the source that are not given here.
Columns and labels:
[1] = test system: LPS-stimulated AM; assay: Intracellular oxidative burst, DCFH oxidation assay, AM; format: cell-based, human; conditions: for oxidative burst in LPS-stimulated AM with IFN-γ: preincubated 24 hour with cytokine 20 ng/ml in the presence of IFN-γ 200 U/ml, LPS 1 μg/ml 20 hour; for LPS-stimulated oxidative burst in AM: preincubation 24 hour with cytokine 20 ng/ml, then LPS 1 μg/ml 20 hour, without IFN-γ
Procedure: Intracellular oxidative capacity was assessed essentially as described by Bass et al., J. Immunol., 130:1910-1917 (1983) (incorporated herein by reference) as described infra.
Cells (0.2×10^6) were preincubated for 24 hour with IL-9 or IL-4 (20 ng/ml) in the presence of IFN-γ (200 U/ml) before stimulation for 20 hour with LPS (1 μg/ml). The intracellular oxidative capacity was measured through the DCFH oxidation assay as describe herein. FIG. 3 depicts the effect of IFN-γ on the inhibition mediated by IL-9 and IL-4 on the oxidative burst in LPS-stimulated PBM (A) and AM (B).
Table 1. Specific blockade of the IL-9 inhibitory effect on oxidative burst in LPS-15 stimulated PBM and AM by anti-hIL-9R mAb. Cells (0.2×10^6) were preincubated with neutralizing mAb against hIL-9R (AH9R7, 10 μg/ml), or with control mIgG2b (10 μg/ml), 1 hour before incubation with IL-9 (20 ng/ml) for 24 hour without removing mAb, and stimulated by LPS (1 μg/ml) for 20 h. Intracellular oxidative capacity was evaluated by the DCFH oxidation assay. Data are means±SEM obtained from three experiments, triplicate conditions being performed in each experiment. *P<0.001 compared with cells preincubated with IL-9 (with or without control mIgG2b).
Intracellular oxidative capacity was assessed as described by Bass et al., (Bass et al., J. Immunol. 130:1910-1917 (1983)). Briefly, the PBM and AM samples were distributed in 96-well plates with flat bottoms (Falcon) to provide 0.2×10^6cells/well. The cells were preincubated for 24 hour at 37° C., 5% CO2 with cytokines (200 u/ml for IFN-y, 20 ng/ml for IL-9 and 20 ng/ml; for IL-4) in cRPMI before being stimulated for 20 hours with LPS (1 μg/ml) without removing the cytokines. At the end of incubation with cytokines and/or LPS, cells were loaded for 15 min with 15 μM DCFH-DA in cRPMI which, after passive penetration into cells, is hydrolyzed into nonfluorescent polar DCFH and trapped inside the cells. DCFH is then oxidized into highly fluorescent DCF according to the intracellular amount of hydrogen peroxide (H2O2) produced by the respiratory burst. After three washings with phosphate-buffered saline (PBS, pH 7.4), cells were lysed in 0.1% v/v Triton X100 (Sigma) in PBS, and fluorescence was quantified in a computerized microplate spectrofluorimeter (Packard Instruments, Downers Grove, Ill., USA) at 485 nm excitation/530 nm emission wavelengths. DCF concentrations were deduced from a standard curve of known concentrations of fluorescent DCF (ranging from 0.08 to 10 μM in lysis buffer) Results were corrected for total protein concentration determined in cell lysates by the bicinchoninic acid-based method (Pierce, Rockford, Ill., USA), and were expressed as nmoles DCF/mg cell protein.

[2] = test system: TLR4; assay: TLR4 surface expression on PBM by FACS; format: cell-based, human; conditions: for TLR4 expression (MFI): PBM preincubated 24 hour, 20 ng/ml IL-9 or IL-4, 200 U/ml IFN-γ, means±SD, medium 73 ± 2; for TLR4 expression on the surface of PBM compared with medium alone: preincubated for 24 hour
Procedure: Table 2. Cells (0.2×10^6) were preincubated for 24 hour with cytokines (20 ng/ml for IL-9 or IL-4 and 200 U/ml for IFN-γ), before the assessment of LPS receptor expression by immunostaining using anti-human CD14 mAb conjugated to FITC and anti-human TLR4 rabbit Ab followed by mouse anti-rabbit IgG (MAR-FITC). Cell-associated fluorescence was evaluated by FACS and expressed as mean fluorescence intensity (MFI). Autofluorescence of PBM was negligible (MFI: 3±1). Data are means±SD (n=3), and are representative of two experiments. *P<0.05 compared with cells preincubated with medium.
Additional stainings for CD14 and Toll-like receptor (TLR)-4 were performed on PBM preincubated for 24 hour with cytokines, using respectively FITC-conjugated anti-CD14 mAb (clone MøP9, mIgG2b, Becton Dickinson) and anti-TLR4 rabbit Ab (Santa Cruz, Calif.) followed by F (ab′)2 fragments of mouse anti-rabbit IgG (MAR)-FITC.

Molecule	Oxidative burst (nmoles DCF/mg protein) ([1]; Table 1, AM, mAb 10 μg/ml 1 hour before IL-9 20 ng/ml 24 hour, LPS 1 μg/ml 20 h, means±SEM, medium 5.8 ± 0.6)	oxidative burst in LPS-stimulated AM with IFN-γ [1]	LPS-stimulated oxidative burst in AM [1]	TLR4 expression (MFI) [2]	TLR4 expression on the surface of PBM compared with medium alone [2]	effect on LPS-stimulated oxidative burst in AM ([1]; preincubation 24 hour, LPS 20 hour)
IL-9: Human IL-9 purified from SF9 insect cell cultures infected with recombinant baculovirus	6.5 ± 0.5 nmoles DCF/mg protein	6.6±1.2 nmoles DCF/mg protein	6.5±0.5 nmoles DCF/mg protein and 6.5±0.6 nmoles DCF/mg protein	71 ± 4 MFI	not significantly different	–
IL-4: Th2 cytokine interleukin-4 used as comparator, 20 ng/ml	–	13.8±1.3 nmoles DCF/mg protein	6.1±0.4 nmoles DCF/mg protein	58 ± 1* MFI	down regulated	–
IFN-γ: Interferon gamma, primes mononuclear phagocytes, 200 U/ml (protein, UniProt P01579 24-161, looked up) Interferon gamma: QDPYVKEAENLKKYFNAGHSDVADNGTLFLGILKNWKEESDRKIMQSQIVSFYFKLFKNFKDDQSIQKSVETIKEDMNVKFFNSNKKKRDDFEKLTNYSVTDLNVQRKAIHELIQVMAELSPAAKTGKRKRSQMLFRG	–	–	–	82 ± 2* MFI	increased	slightly increased
